Data reported in patent US20260219194A1, “BIOSENSOR FOR WATER ANALYSIS” (BIOCELL ANALYTICA UPPSALA AB, priority 2023, published 2026).

System: estrogen responsive promoter (four repeats of estrogen response element, ERE) in MCF-7/S0.5 reporter cells
Assay: Estrogen-responsive NanoLuc luciferase reporter assay in transfected MCF-7/S0.5 cells, luminescence in culture medium without cell lysis
Assay type: cell-based, human
Settings: MCF-7/S0.5 reporter cells exposed for 24 h to 0.03 to 109 ng/L
Protocol: MCF-7/S0.5 human breast cancer cells (Sigma-Aldrich, catalogue no. SCC100) were cultured in medium supplemented with 1% charcoal-stripped fetal bovine serum (FBS) for 48 hours prior to seeding. The cells were then seeded in medium supplemented with 1% FBS and incubated for 48 hours. […]
The luminescence was measured in the cell culture medium by a Spark® Multimode Microplate Reader (Tecan) from three experimental groups: a) negative control with only cell culture medium but no cells, b) cell culture medium and non-transfected cells, and c) cell cultured medium and cells transfected with the reporter plasmid mentioned above (“reporter cells”).
The MCF-7/S0.5 cells transfected with the reporter plasmid where the expression of NanoLuc® luciferase with an N-terminal secretion signal was under the regulation of an estrogen responsive promoter produced in Example 1 were exposed for 24 h to increasing concentrations of 17β-estradiol, ranging from 0.03 to 109 ng/L. The luminescence was then analyzed in the cell culture medium, without cell lysis.

For `C[C@]12CC[C@@H]3c4ccc(O)cc4CC[C@H]3[C@@H]1CC[C@@H]2O` [E2, 17β-estradiol], the “amount of NanoLuc luciferase secreted into the cell culture medium” value (FIG. 6) was “increasing with increasing concentration of E2” and the “effect concentration 20% (EC20)” value (luminescence of secreted NanoLuc luciferase in cell culture medium) was 0.19 ng/L.
